Measurements taken from ChEMBL document CHEMBL1151251, “Monanchorin, a bicyclic alkaloid from the sponge Monanchora ungiculata” (J Nat Prod, 2004).
Values after ≈ are worked out from the molar mass of the structure shown.

Experiment: Cytotoxicity against mouse IC2 cells
Assay type: functional, cell-based

CC[C@@H]1C=CCC[C@]2(C[C@H]3CC[C@H]4[C@@H](C(=O)O)[C@@]5(CCC[C@H](C)O5)N=C(N2)N34)O1 [CRAMBESIDIN ACID]
IC50: 25 µg/mL (≈ 62 µM)

CCCCC[C@@H]1O[C@@H]2CC[C@@H]1NC(=N)N2 [MONANCHORIC ACID]
IC50: 11.3 µg/mL (≈ 53.5 µM)
